Results from ChEMBL document CHEMBL6153104, “Discovery of the first potent ROR1 degrader for the treatment of non-small cell lung cancer” (Eur J Med Chem, 2025).
Activity calls are given as the source filed them. The rule behind the calls is not given here.

Key:
[1] = biological target: T1, von Hippel-Lindau disease tumor suppressor/Inactive tyrosine-protein kinase transmembrane receptor ROR1 (Homo sapiens, UniProt P40337+Q01973); test: PROTAC activity at VHL/ROR1 in human NCI-H23 cells assessed as induction of ROR1 degradation at 0.1 uM incubated for 24 hrs by Western blot analysis relative to control; type: cell-based
Target sequence in this assay (P40337 whole entry): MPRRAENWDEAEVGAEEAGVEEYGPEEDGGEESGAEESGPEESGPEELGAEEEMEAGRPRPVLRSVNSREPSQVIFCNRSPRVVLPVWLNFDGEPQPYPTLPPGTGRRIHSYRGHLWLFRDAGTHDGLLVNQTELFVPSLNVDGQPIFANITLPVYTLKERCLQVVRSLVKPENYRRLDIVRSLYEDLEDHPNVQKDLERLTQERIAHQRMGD
Target sequence in this assay (Q01973 30-937 partner limits assumed): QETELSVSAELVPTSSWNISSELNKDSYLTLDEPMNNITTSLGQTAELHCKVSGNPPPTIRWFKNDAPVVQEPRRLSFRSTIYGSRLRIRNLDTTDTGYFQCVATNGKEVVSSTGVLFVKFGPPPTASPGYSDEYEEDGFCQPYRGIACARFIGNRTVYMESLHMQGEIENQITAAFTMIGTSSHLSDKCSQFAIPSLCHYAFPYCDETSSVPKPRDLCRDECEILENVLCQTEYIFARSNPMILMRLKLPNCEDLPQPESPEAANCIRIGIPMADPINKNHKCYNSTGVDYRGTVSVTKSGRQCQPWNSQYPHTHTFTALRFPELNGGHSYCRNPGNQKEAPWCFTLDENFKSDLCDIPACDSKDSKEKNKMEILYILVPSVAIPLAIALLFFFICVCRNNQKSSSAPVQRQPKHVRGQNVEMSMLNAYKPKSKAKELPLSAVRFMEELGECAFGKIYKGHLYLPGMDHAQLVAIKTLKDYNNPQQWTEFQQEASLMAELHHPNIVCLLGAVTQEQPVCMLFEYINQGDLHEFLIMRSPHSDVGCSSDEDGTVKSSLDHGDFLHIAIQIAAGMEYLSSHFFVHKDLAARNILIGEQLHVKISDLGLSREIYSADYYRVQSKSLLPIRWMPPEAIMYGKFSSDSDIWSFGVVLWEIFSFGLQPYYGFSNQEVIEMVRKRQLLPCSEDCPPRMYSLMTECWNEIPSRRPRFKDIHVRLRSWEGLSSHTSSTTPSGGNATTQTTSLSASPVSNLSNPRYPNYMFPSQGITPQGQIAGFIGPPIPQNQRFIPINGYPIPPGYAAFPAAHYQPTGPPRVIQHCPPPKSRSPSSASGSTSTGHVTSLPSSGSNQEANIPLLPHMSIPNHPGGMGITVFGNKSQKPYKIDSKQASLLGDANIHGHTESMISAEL

[2] = biological target: T1, von Hippel-Lindau disease tumor suppressor/Inactive tyrosine-protein kinase transmembrane receptor ROR1; test: PROTAC activity at VHL/ROR1 in human NCI-H23 cells assessed as induction of ROR1 degradation at 1 uM incubated for 24 hrs by Western blot analysis relative to control; type: cell-based
Target sequence in this assay (P40337 whole entry): as the sequence (P40337 whole entry) above
Target sequence in this assay (Q01973 30-937 partner limits assumed): as the sequence (Q01973 30-937 partner limits assumed) above

[3] = biological target: T1, von Hippel-Lindau disease tumor suppressor/Inactive tyrosine-protein kinase transmembrane receptor ROR1; test: PROTAC activity at VHL/ROR1 in human NCI-H23 cells assessed as induction of ROR1 degradation incubated for 12 hrs by Western blot analysis; type: cell-based
[4] = biological target: T1, von Hippel-Lindau disease tumor suppressor/Inactive tyrosine-protein kinase transmembrane receptor ROR1; test: PROTAC activity at VHL/ROR1 in human NCI-H23 cells assessed as induction of ROR1 degradation by measuring maximal efficacy at 10 to 1000 nM incubated for 12 hrs by Western blot analysis relative to control; type: cell-based; conditions: dose 10-1000 nM
Target sequence in this assay (P40337 whole entry): as the sequence (P40337 whole entry) above
Target sequence in this assay (Q01973 30-937 partner limits assumed): as the sequence (Q01973 30-937 partner limits assumed) above

[5] = biological target: T1, von Hippel-Lindau disease tumor suppressor/Inactive tyrosine-protein kinase transmembrane receptor ROR1; test: PROTAC activity at VHL/ROR1 in human NCI-H23 cells assessed as induction of ROR1 degradation at 1 uM incubated for 4 hrs by Western blot analysis; type: cell-based
Target sequence in this assay (P40337 whole entry): as the sequence (P40337 whole entry) above
Target sequence in this assay (Q01973 30-937 partner limits assumed): as the sequence (Q01973 30-937 partner limits assumed) above

[6] = biological target: T1, von Hippel-Lindau disease tumor suppressor/Inactive tyrosine-protein kinase transmembrane receptor ROR1; test: PROTAC activity at VHL/ROR1 in human NCI-H23 cells assessed as induction of ROR1 degradation at 1 uM incubated for 24 hrs by Western blot analysis; type: cell-based
Target sequence in this assay (P40337 whole entry): as the sequence (P40337 whole entry) above
Target sequence in this assay (Q01973 30-937 partner limits assumed): as the sequence (Q01973 30-937 partner limits assumed) above

[7] = biological target: T1, von Hippel-Lindau disease tumor suppressor/Inactive tyrosine-protein kinase transmembrane receptor ROR1; test: PROTAC activity at VHL/ROR1 in human NCI-H23 cells assessed as induction of ROR1 degradation at 1 uM by Western blot analysis; type: cell-based; conditions: time 2-24 hrs
Target sequence in this assay (P40337 whole entry): as the sequence (P40337 whole entry) above
Target sequence in this assay (Q01973 30-937 partner limits assumed): as the sequence (Q01973 30-937 partner limits assumed) above

[8] = biological target: T1, von Hippel-Lindau disease tumor suppressor/Inactive tyrosine-protein kinase transmembrane receptor ROR1; test: PROTAC activity at VHL/ROR1 in human NCI-H460 cells assessed as induction of ROR1 degradation incubated for 12 hrs by Western blot analysis; type: cell-based
Target sequence in this assay (P40337 whole entry): as the sequence (P40337 whole entry) above
Target sequence in this assay (Q01973 whole entry): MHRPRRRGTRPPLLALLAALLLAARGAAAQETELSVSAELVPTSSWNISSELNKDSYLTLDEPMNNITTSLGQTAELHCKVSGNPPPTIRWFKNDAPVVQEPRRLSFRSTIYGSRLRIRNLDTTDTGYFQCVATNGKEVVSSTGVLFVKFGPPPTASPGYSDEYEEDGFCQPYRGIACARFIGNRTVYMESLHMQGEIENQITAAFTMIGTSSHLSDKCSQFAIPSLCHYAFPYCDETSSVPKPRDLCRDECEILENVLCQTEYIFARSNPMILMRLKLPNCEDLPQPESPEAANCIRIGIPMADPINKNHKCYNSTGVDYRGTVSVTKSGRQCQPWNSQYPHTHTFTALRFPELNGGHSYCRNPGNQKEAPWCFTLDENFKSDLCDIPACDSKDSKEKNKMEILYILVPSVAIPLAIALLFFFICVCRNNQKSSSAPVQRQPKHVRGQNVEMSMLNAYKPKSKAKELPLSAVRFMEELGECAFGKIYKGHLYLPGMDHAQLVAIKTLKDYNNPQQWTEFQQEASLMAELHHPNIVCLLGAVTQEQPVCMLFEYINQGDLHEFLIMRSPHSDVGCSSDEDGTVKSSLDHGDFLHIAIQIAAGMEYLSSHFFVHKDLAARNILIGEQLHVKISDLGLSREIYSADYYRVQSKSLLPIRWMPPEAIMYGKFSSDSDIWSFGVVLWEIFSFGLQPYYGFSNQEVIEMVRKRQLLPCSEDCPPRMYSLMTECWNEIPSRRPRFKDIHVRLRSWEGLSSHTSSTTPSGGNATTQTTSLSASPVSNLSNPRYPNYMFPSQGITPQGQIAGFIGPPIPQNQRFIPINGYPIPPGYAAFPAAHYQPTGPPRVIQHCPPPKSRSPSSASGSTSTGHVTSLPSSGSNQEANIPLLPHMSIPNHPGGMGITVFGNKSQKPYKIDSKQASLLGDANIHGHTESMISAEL

[9] = biological target: T1, von Hippel-Lindau disease tumor suppressor/Inactive tyrosine-protein kinase transmembrane receptor ROR1; test: PROTAC activity at VHL/ROR1 in human NCI-H1299 cells assessed as induction of ROR1 degradation incubated for 12 hrs by Western blot analysis; type: cell-based
Target sequence in this assay (P40337 whole entry): as the sequence (P40337 whole entry) above
Target sequence in this assay (Q01973 whole entry): as the sequence (Q01973 whole entry) above

[10] = biological target: T1, von Hippel-Lindau disease tumor suppressor/Inactive tyrosine-protein kinase transmembrane receptor ROR1; test: PROTAC activity at VHL/ROR1 in human NCI-H1975 cells assessed as induction of ROR1 degradation incubated for 12 hrs by Western blot analysis; type: cell-based
Target sequence in this assay (P40337 whole entry): as the sequence (P40337 whole entry) above
Target sequence in this assay (Q01973 whole entry): as the sequence (Q01973 whole entry) above

[11] = biological target: T1, von Hippel-Lindau disease tumor suppressor/Inactive tyrosine-protein kinase transmembrane receptor ROR1; test: PROTAC activity at VHL/ROR1 in human NCI-H23 cells assessed as induction of ROR1 degradation at 0.7 uM preincubated with PS-341 for 2 hrs followed by compound addition and measured after 24 hrs by Western blot analysis; type: cell-based
[12] = biological target: T1, von Hippel-Lindau disease tumor suppressor/Inactive tyrosine-protein kinase transmembrane receptor ROR1; test: PROTAC activity at VHL/ROR1 in human NCI-H23 cells assessed as induction of ROR1 degradation at 0.7 uM preincubated with TAK-243 for 2 hrs followed by compound addition and measured after 24 hrs by Western blot analysis; type: cell-based
[13] = biological target: T1, von Hippel-Lindau disease tumor suppressor/Inactive tyrosine-protein kinase transmembrane receptor ROR1; test: PROTAC activity at VHL/ROR1 in human NCI-H23 cells assessed as induction of ROR1 degradation at 0.5 uM preincubated with bafilomycin A1 for 2 hrs followed by compound addition and measured after 24 hrs by Western blot analysis; type: cell-based
[14] = biological target: T1, von Hippel-Lindau disease tumor suppressor/Inactive tyrosine-protein kinase transmembrane receptor ROR1; test: PROTAC activity at VHL/ROR1 in human NCI-H23 cells assessed as induction of ROR1 degradation preincubated with cycloheximide followed by compound addition and measured after 6 hrs by Western blot analysis; type: cell-based
[15] = biological target: T2, von Hippel-Lindau disease tumor suppressor/Tyrosine-protein kinase transmembrane receptor ROR2 (Homo sapiens) (UniProt Q01974+P40337); test: PROTAC activity at VHL/ROR2 in human NCI-H1975 cells assessed as induction of ROR2 degradation at 1 uM by Western blot analysis; type: cell-based
[16] = tested on: NCI-H23; test: Induction of apoptosis in human NCI-H23 cells assessed as necrotic cells at 0.1 uM incubated for 24 hrs by […]/Annexin V-PE staining based flow cytometric analysis (reference value: 0.5 %); type: functional
[17] = tested on: NCI-H23; test: Induction of apoptosis in human NCI-H23 cells assessed as late apoptotic cells at 0.1 uM incubated for 24 hrs by […]/Annexin V-PE staining based flow cytometric analysis (reference value: 1.6 %); type: functional
[18] = tested on: NCI-H23; test: Induction of apoptosis in human NCI-H23 cells assessed as necrotic cells at 0.3 uM incubated for 24 hrs by […]/Annexin V-PE staining based flow cytometric analysis (reference value: 0.5 %); type: functional
[19] = biological target: T2, von Hippel-Lindau disease tumor suppressor/Tyrosine-protein kinase transmembrane receptor ROR2 (Homo sapiens); test: PROTAC activity at VHL/ROR2 in human NCI-H23 cells assessed as induction of ROR2 degradation by Western blot analysis; type: cell-based
[20] = biological target: T3, von Hippel-Lindau disease tumor suppressor/Cyclin-dependent kinase-like 2 (Homo sapiens) (UniProt Q92772+P40337); test: PROTAC activity at VHL/CDKL2 in human NCI-H1975 cells assessed as induction of CDKL2 degradation by Western blot analysis; type: cell-based
T3 sequence (P40337 whole entry, looked up): as the sequence (P40337 whole entry) above
T3 sequence (Q92772 whole entry, looked up): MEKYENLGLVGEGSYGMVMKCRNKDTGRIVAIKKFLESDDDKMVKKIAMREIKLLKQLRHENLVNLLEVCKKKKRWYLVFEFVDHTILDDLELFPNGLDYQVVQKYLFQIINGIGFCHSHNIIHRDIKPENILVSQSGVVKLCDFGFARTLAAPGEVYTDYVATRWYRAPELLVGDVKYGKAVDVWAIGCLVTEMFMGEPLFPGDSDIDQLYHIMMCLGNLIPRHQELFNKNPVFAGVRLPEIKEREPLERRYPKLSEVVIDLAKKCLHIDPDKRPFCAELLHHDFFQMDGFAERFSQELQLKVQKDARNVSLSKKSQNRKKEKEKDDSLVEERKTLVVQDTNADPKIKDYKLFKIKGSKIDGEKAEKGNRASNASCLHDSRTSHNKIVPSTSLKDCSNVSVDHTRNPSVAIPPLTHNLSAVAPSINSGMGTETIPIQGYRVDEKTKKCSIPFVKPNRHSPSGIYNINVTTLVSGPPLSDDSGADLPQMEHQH

[21] = biological target: T3, von Hippel-Lindau disease tumor suppressor/Cyclin-dependent kinase-like 2 (Homo sapiens); test: PROTAC activity at VHL/CDKL2 in human NCI-H23 cells assessed as induction of CDKL2 degradation by Western blot analysis; type: cell-based
[22] = biological target: T4, von Hippel-Lindau disease tumor suppressor/Cyclin-dependent kinase 4 (Homo sapiens) (UniProt P11802+P40337); test: PROTAC activity at VHL/CDK4 in human NCI-H1975 cells assessed as induction of CDK4 degradation by Western blot analysis; type: cell-based
T4 sequence (P11802 2-303 limits assumed): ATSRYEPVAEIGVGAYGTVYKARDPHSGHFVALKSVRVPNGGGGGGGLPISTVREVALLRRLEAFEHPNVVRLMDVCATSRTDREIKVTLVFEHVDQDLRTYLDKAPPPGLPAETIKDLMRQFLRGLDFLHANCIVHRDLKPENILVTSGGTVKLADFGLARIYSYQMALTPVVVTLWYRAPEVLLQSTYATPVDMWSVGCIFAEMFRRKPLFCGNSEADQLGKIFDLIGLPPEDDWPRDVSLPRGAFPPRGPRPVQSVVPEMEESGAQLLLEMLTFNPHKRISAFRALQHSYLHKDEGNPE
T4 sequence (P40337 whole entry partner): as the sequence (P40337 whole entry) above

[23] = biological target: T4, von Hippel-Lindau disease tumor suppressor/Cyclin-dependent kinase 4 (Homo sapiens); test: PROTAC activity at VHL/CDK4 in human NCI-H23 cells assessed as induction of CDK4 degradation by Western blot analysis; type: cell-based
[24] = biological target: T5, von Hippel-Lindau disease tumor suppressor/Cyclin-dependent kinase 7 (Homo sapiens) (UniProt P50613+P40337); test: PROTAC activity at VHL/CDK7 in human NCI-H1975 cells assessed as induction of CDK7 degradation by Western blot analysis; type: cell-based
T5 sequence (P40337 whole entry, looked up): as the sequence (P40337 whole entry) above
T5 sequence (P50613 whole entry, looked up): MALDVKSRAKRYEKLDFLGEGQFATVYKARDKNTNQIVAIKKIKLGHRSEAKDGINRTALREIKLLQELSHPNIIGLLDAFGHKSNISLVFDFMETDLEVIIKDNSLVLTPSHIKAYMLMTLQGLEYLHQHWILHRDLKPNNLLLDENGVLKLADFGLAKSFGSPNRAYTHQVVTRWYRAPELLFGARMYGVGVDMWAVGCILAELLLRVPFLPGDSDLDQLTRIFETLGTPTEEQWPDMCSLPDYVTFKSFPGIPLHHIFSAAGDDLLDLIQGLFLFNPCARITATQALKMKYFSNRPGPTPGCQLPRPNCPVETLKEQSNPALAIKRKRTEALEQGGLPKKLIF

[25] = biological target: T5, von Hippel-Lindau disease tumor suppressor/Cyclin-dependent kinase 7 (Homo sapiens); test: PROTAC activity at VHL/CDK7 in human NCI-H23 cells assessed as induction of CDK7 degradation by Western blot analysis; type: cell-based
[26] = tested on: NCI-H23; test: Induction of apoptosis in human NCI-H23 cells assessed as viable cells at 0.1 uM incubated for 24 hrs by […]/Annexin V-PE staining based flow cytometric analysis (reference value: 92.7 %); type: functional; conditions: read-out: Activity
[27] = tested on: NCI-H23; test: Induction of apoptosis in human NCI-H23 cells assessed as early apoptotic cells at 0.1 uM incubated for 24 hrs by […]/Annexin V-PE staining based flow cytometric analysis (reference value: 5.1 %); type: functional
[28] = tested on: NCI-H23; test: Induction of apoptosis in human NCI-H23 cells assessed as viable cells at 0.3 uM incubated for 24 hrs by […]/Annexin V-PE staining based flow cytometric analysis (reference value: 92.7 %); type: functional; conditions: read-out: Activity
[29] = tested on: NCI-H23; test: Induction of apoptosis in human NCI-H23 cells assessed as early apoptotic cells at 0.3 uM incubated for 24 hrs by […]/Annexin V-PE staining based flow cytometric analysis (reference value: 5.1 %); type: functional
[30] = tested on: NCI-H23; test: Induction of apoptosis in human NCI-H23 cells assessed as late apoptotic cells at 0.3 uM incubated for 24 hrs by […]/Annexin V-PE staining based flow cytometric analysis (reference value: 1.6 %); type: functional
[31] = tested on: NCI-H23; test: Induction of apoptosis in human NCI-H23 cells assessed as viable cells at 1 uM incubated for 24 hrs by […]/Annexin V-PE staining based flow cytometric analysis (reference value: 92.7 %); type: functional; conditions: read-out: Activity
[32] = tested on: NCI-H23; test: Induction of apoptosis in human NCI-H23 cells assessed as early apoptotic cells at 1 uM incubated for 24 hrs by […]/Annexin V-PE staining based flow cytometric analysis (reference value: 5.1 %); type: functional
[33] = tested on: NCI-H23; test: Induction of apoptosis in human NCI-H23 cells assessed as late apoptotic cells at 1 uM incubated for 24 hrs by […]/Annexin V-PE staining based flow cytometric analysis (reference value: 1.6 %); type: functional
[34] = tested on: NCI-H23; test: Induction of apoptosis in human NCI-H23 cells assessed as necrotic cells at 1 uM incubated for 24 hrs by […]/Annexin V-PE staining based flow cytometric analysis (reference value: 0.5 %); type: functional
[35] = tested on: NCI-H23; test: Induction of apoptosis in human NCI-H23 cells assessed as PARP1 cleavage at 0.1 uM measured after 10 hrs by Western blot analysis; type: functional, cell-based
[36] = tested on: NCI-H23; test: Antiproliferative activity against human NCI-H23 cells assessed as inhibition of cell proliferation incubated for 72 hrs by CCK8 assay; type: functional, cell-based; conditions: NCI-H23, 72 h
[37] = tested on: NCI-H1975; test: Antiproliferative activity against human NCI-H1975 cells assessed as inhibition of cell proliferation incubated for 72 hrs by CCK8 assay; type: functional, cell-based; conditions: NCI-H1975, 72 h
[38] = tested on: NCI-H1299; test: Antiproliferative activity against human NCI-H1299 cells assessed as inhibition of cell proliferation incubated for 72 hrs by CCK8 assay; type: functional, cell-based; conditions: NCI-H1299, 72 h
[39] = tested on: NCI-H460; test: Antiproliferative activity against human NCI-H460 cells assessed as inhibition of cell proliferation incubated for 72 hrs by CCK8 assay; type: functional, cell-based; conditions: NCI-H460, 72 h
[40] = biological target: Inactive tyrosine-protein kinase transmembrane receptor ROR1 (Homo sapiens, UniProt Q01973); test: Binding affinity to RED-NHS-labeled human ROR1 kinase domain (460 to 752 residues) extracted from Sf9 cells assessed as dissociation constant incubated for 30 mins by MST analysis; type: cell-free
[41] = tested on: NCI-H23; test: Induction of apoptosis in human NCI-H23 cells assessed as PARP1 cleavage at 1 uM measured after 10 hrs by Western blot analysis; type: functional
[42] = tested on: NCI-H23; test: Induction of apoptosis in human NCI-H23 cells assessed as PARP1 cleavage at 0.1 to 1 uM measured after 10 hrs by Western blot analysis; type: functional, cell-based; conditions: dose 0.1-1 µM

Structure (SMILES): CCN1CCC(Nc2c(Br)cnc3[nH]c(-c4ccc(N5CCN(C(=O)CCCCCCCCC(=O)N[C@H](C(=O)N6C[C@H](O)C[C@H]6C(=O)NCc6ccc(-c7scnc7C)cc6)C(C)(C)C)CC5)cc4)nc23)CC1
- Activity [1]: 93%
- Activity [2]: 99.7%
- Activity [3]: Dose-dependent-effect
- DC50 [3]: 40.9 nM
- Emax [4]: 93.7%
- Activity [5]: Active
- Activity [6]: Active; Maximal Degradation Observed
- Activity [7]: Time-dependent-effect
- DC50 [8]: 69 nM
- DC50 [9]: 83.3 nM
- DC50 [10]: 42.1 nM
- Activity [11]: inactive
- Activity [12]: inactive
- Activity [13]: Active
- Activity [14]: Active; Compound Reduction Ror1 Protein Via Protein Degradation Pathway
- Activity [15]: Active; Slight Degradation Observed
- Activity [16]: 0.3%
- Activity [17]: 6.5%
- Activity [18]: 0.8%
- Activity [19]: inactive
- Activity [20]: inactive
- Activity [21]: inactive
- Activity [22]: inactive
- Activity [23]: inactive
- Activity [24]: inactive
- Activity [25]: inactive
- viability at 0.1 µM [26]: 63.2%
- Activity [27]: 29.9%
- viability at 0.3 µM [28]: 32.5%
- Activity [29]: 46.5%
- Activity [30]: 20.1%
- viability at 1 µM [31]: 29.9%
- Activity [32]: 46.9%
- Activity [33]: 22.1%
- Activity [34]: 1.4%
- Activity [35]: Active
- IC50 [36]: 36 nM
- IC50 [37]: 63 nM
- IC50 [38]: 164 nM
- IC50 [39]: 85 nM

Structure (SMILES): CCOCCN1CCN(c2ccc(-c3nc4c(NC5CCN(CC)CC5)c(Br)cnc4[nH]3)cc2)CC1
- Kd [40]: 42000 nM
- Activity [16]: 0.2%
- Activity [17]: 0.5%
- Activity [18]: 0.2%
- viability at 0.1 µM [26]: 96.9%
- Activity [27]: 2.5%
- viability at 0.3 µM [28]: 94.5%
- Activity [29]: 4.3%
- Activity [30]: 1%
- viability at 1 µM [31]: 63.7%
- Activity [32]: 29.5%
- Activity [33]: 6.1%
- Activity [34]: 0.7%
- Activity [41]: 100%
- Activity [42]: Active; Less Potent Compared To Compound 11
- IC50 [36]: 483 nM
- IC50 [37]: 371 nM
- IC50 [38]: 5820 nM
- IC50 [39]: 5210 nM
